Measurements published in US8906381B2, “Immunonanotherapeutics that provide IGG humoral response without T-cell antigen” (Massachusetts Institute of Technology, priority 2008, dated 2014).

How the values were obtained:
[1] = system: CD4 T cells from OT-II donor mice; assay: In vivo CD4 T cell activation (CFSE-labeled OT-II cells); parameters: species or system C57BL6J mice; conditions: three days after footpad immunization; CpG adjuvant
Procedure: Subsequently, immunization experiments were performed by injecting one footpad with free OVA or with nanoparticles composed of either PLA or PLGA that encapsulated an equivalent amount of OVA as a model antigen. All antigenic mixtures also contained CpG (a TLR9 agonist) as an adjuvant. The animals were injected, sacrificed three days after immunization, and OT-II T cell activation was assessed by flow cytometry in single-cell suspensions from different tissues.
By contrast, activated T cells divide and in the process split the fluorescent dye evenly between the two daughter cells resulting in an incremental decrease in fluorescence intensity upon each successive division. Thus, the greater the left shift in CFSE, fluorescence the stronger T cells were activated.

[2] = system: anti-nicotine IgG; assay: Anti-nicotine IgG in immunized mice (ELISA); assay type: in vivo, C57BL6 mice; conditions: data of FIGS. 34 and 35

Molecule | local T cell proliferation in distal lymphoid tissues (brachial lymph node, spleen) [1] | production of nicotine antibodies [2]
free OVA: free chicken ovalbumin (OVA) model antigen, mixed with CpG adjuvant | only undivided cells or cells with very low CFSE content | 
CN1CCCC1c1cccnc1 (centres unmarked) [free nicotine, nicotine] |  | does not elicit the production of nicotine antibodies
